Test results as given in ChEMBL document CHEMBL4270599, “Synthesis of a 3'-C-ethynyl-β-d-ribofuranose purine nucleoside library: Discovery of C7-deazapurine analogs as potent antiproliferative nucleosides” (Eur J Med Chem, 2018).

Experiments:
Format in all cases: functional
NCI/ADR-RES = assay: Cytotoxicity against human NCI-ADR-RES cells after 48 hrs by SRB assay; conditions: for GI50: read-out: GI50; for CC50: read-out: pLC50 (the source's name) (converted)
OVCAR-4 [1] = assay: Growth inhibition of human OVCAR4 cells assessed as cell growth at 10^-5 M incubated for 48 hrs by sulforhodamine B assay relative to control; conditions: OVCAR-4, 48 h, read-out: Activity
K562 = assay: Growth inhibition of human K562 cells assessed as cell growth at 10^-6 M incubated for 48 hrs by sulforhodamine B assay relative to control; conditions: K562, 48 h, read-out: Activity
SK-MEL-2 [2] = assay: Cytotoxicity against human SK-MEL-2 cells after 48 hrs by SRB assay; conditions: SK-MEL-2, 48 h; for GI50: read-out: GI50; for CC50: read-out: LC50 (the source's name); for TGI: read-out: TGI
DU-145 = assay: Growth inhibition of human DU145 cells assessed as cell growth at 10^-8 M incubated for 48 hrs by sulforhodamine B assay relative to control; conditions: DU-145, 48 h, read-out: Activity
SNB-19 = assay: Growth inhibition of human SNB19 cells assessed as cell growth at 10^-6 M incubated for 48 hrs by sulforhodamine B assay relative to control; conditions: SNB-19, 48 h, read-out: Activity
SK-MEL-28 = assay: Growth inhibition of human SK-MEL-28 cells assessed as cell growth at 10^-6 M incubated for 48 hrs by sulforhodamine B assay relative to control; conditions: SK-MEL-28, 48 h, read-out: Activity
HCT-116 = assay: Growth inhibition of human HCT116 cells assessed as cell growth at 10^-7 M incubated for 48 hrs by sulforhodamine B assay relative to control; conditions: HCT-116, 48 h, read-out: Activity
NCI-H226 = assay: Growth inhibition of human NCI-H226 cells assessed as cell growth at 10^-4 M incubated for 48 hrs by sulforhodamine B assay relative to control; conditions: NCI-H226, 48 h, read-out: Activity
OVCAR-4 [3] = assay: Growth inhibition of human OVCAR4 cells assessed as cell growth at 10^-4 M incubated for 48 hrs by sulforhodamine B assay relative to control; conditions: OVCAR-4, 48 h, read-out: Activity
SNB-75 = assay: Cytotoxicity against human SNB75 cells after 48 hrs by SRB assay; conditions: SNB-75, 48 h; for GI50: read-out: GI50; for CC50: read-out: LC50 (the source's name); for TGI: read-out: TGI
SN12C = assay: Growth inhibition of human SN12C cells assessed as cell growth at 10^-4 M incubated for 48 hrs by sulforhodamine B assay relative to control; conditions: read-out: Activity
MCF7 = assay: Growth inhibition of human MCF7 cells assessed as cell growth at 10^-8 M incubated for 48 hrs by sulforhodamine B assay relative to control; conditions: MCF7, 48 h, read-out: Activity
MDA-MB-468 = assay: Cytotoxicity against human MDA-MB-468 cells after 48 hrs by SRB assay; conditions: MDA-MB-468, 48 h; for GI50: read-out: GI50; for TGI: read-out: TGI
OVCAR-4 [4] = assay: Growth inhibition of human OVCAR4 cells assessed as cell growth at 10^-6 M incubated for 48 hrs by sulforhodamine B assay relative to control; conditions: OVCAR-4, 48 h, read-out: Activity
KM12 = assay: Growth inhibition of human KM12 cells assessed as cell growth at 10^-8 M incubated for 48 hrs by sulforhodamine B assay relative to control; conditions: KM12, 48 h, read-out: Activity
NCI-H23 [5] = assay: Growth inhibition of human NCI-H23 cells assessed as cell growth at 10^-6 M incubated for 48 hrs by sulforhodamine B assay relative to control; conditions: NCI-H23, 48 h, read-out: Activity
HOP-92 = assay: Growth inhibition of human HOP92 cells assessed as cell growth at 10^-7 M incubated for 48 hrs by sulforhodamine B assay relative to control; conditions: HOP-92, 48 h, read-out: Activity
NCI-H23 [6] = assay: Cytotoxicity against human NCI-H23 cells after 48 hrs by SRB assay; conditions: NCI-H23, 48 h; for GI50: read-out: GI50; for TGI: read-out: TGI
MOLT-4 = assay: Cytotoxicity against human MOLT4 cells after 48 hrs by SRB assay; conditions: MOLT-4, 48 h; for GI50: read-out: GI50
SF-295 = assay: Growth inhibition of human SF295 cells assessed as cell growth at 10^-8 M incubated for 48 hrs by sulforhodamine B assay relative to control; conditions: SF-295, 48 h, read-out: Activity
IGROV-1 = assay: Growth inhibition of human IGROV1 cells assessed as cell growth at 10^-7 M incubated for 48 hrs by sulforhodamine B assay relative to control; conditions: IGROV-1, 48 h, read-out: Activity
RXF 393 = assay: Cytotoxicity against human RXF393 cells after 48 hrs by SRB assay; conditions: RXF 393, 48 h; for GI50: read-out: GI50; for CC50: read-out: LC50 (the source's name); for TGI: read-out: TGI
T47D = assay: Growth inhibition of human T47D cells assessed as cell growth at 10^-8 M incubated for 48 hrs by sulforhodamine B assay relative to control; conditions: read-out: Activity
U-251 = assay: Growth inhibition of human U251 cells assessed as cell growth at 10^-4 M incubated for 48 hrs by sulforhodamine B assay relative to control; conditions: U-251, 48 h, read-out: Activity
SK-MEL-2 [7] = assay: Growth inhibition of human SK-MEL-2 cells assessed as cell growth at 10^-8 M incubated for 48 hrs by sulforhodamine B assay relative to control; conditions: SK-MEL-2, 48 h, read-out: Activity
EKVX = assay: Growth inhibition of human EKVX cells assessed as cell growth at 10^-7 M incubated for 48 hrs by sulforhodamine B assay relative to control; conditions: read-out: Activity
HCT-15 [8] = assay: Growth inhibition of human HCT15 cells assessed as cell growth at 10^-8 M incubated for 48 hrs by sulforhodamine B assay relative to control; conditions: HCT-15, 48 h, read-out: Activity
HCT-15 [9] = assay: Growth inhibition of human HCT15 cells assessed as cell growth at 10^-5 M incubated for 48 hrs by sulforhodamine B assay relative to control; conditions: HCT-15, 48 h, read-out: Activity
A549 = assay: Growth inhibition of human A549/ATCC cells assessed as cell growth at 10^-6 M incubated for 48 hrs by sulforhodamine B assay relative to control; conditions: A549, 48 h, read-out: Activity
RPMI-8226 = assay: Growth inhibition of human RPMI8226 cells assessed as cell growth at 10^-6 M incubated for 48 hrs by sulforhodamine B assay relative to control; conditions: RPMI-8226, 48 h, read-out: Activity
[10] = read-out: pLC50 (the source's name) (converted)
[11] = read-out: LC50 (the source's name)

Work on `C#C[C@@]1(O)[C@@H](CO)O[C@@H](n2cc(Br)c3c(N)ncnc32)[C@@H]1O` yielded a GI50 (NCI/ADR-RES) of 0.0451 to 0.0659 µM, a TGI (NCI/ADR-RES; read-out: TGI) of 1.02 µM and a CC50 (NCI/ADR-RES) greater than 100 µM. The TGI (NCI/ADR-RES; read-out: pTGI (converted)) was 1.02 µM, the growth at 10 µM (OVCAR-4 [1]) was 7% and the growth at 1 µM (K562) was 7 to 10%. The GI50 (SK-MEL-2 [2]) was 0.197 to 0.916 µM, the CC50 (SK-MEL-2 [2]) was 49.5 to 100 µM and the TGI (SK-MEL-2 [2]) was 0.43 to 0.758 µM. For the same molecule, the growth at 0.01 µM (DU-145) was 98 to 100%, the growth at 1 µM (SNB-19) was 6% and the growth at 1 µM (SK-MEL-28) was 61 to 68%. For the same molecule, the growth at 0.1 µM (HCT-116) was 2 to 12%, the growth at 100 µM (NCI-H226) was 23% and the growth at 100 µM (OVCAR-4 [3]) was 3 to 15%. For the same molecule, the GI50 (SNB-75) was 0.221 to 0.249 µM, the CC50 (SNB-75) was 1.64 to 3.67 µM and the TGI (SNB-75) was 0.519 to 1.07 µM. The growth at 100 µM (SN12C) was 1 to 5%, the growth at 0.01 µM (MCF7) was 60 to 74% and the GI50 (MDA-MB-468) was 0.115 to 0.219 µM. The TGI (MDA-MB-468) was 0.352 to 0.637 µM, the CC50 (MDA-MB-468; [10]) was 1.91 µM and the growth at 1 µM (OVCAR-4 [4]) was 19 to 29%. For the same molecule, the growth at 0.01 µM (KM12) was 91 to 95%, the growth at 1 µM (NCI-H23 [5]) was 7 to 13% and the growth at 0.1 µM (HOP-92) was 63 to 78%. The GI50 (NCI-H23 [6]) was 0.162 to 0.225 µM, the TGI (NCI-H23 [6]) was 1.93 to 4.21 µM and the CC50 (NCI-H23 [6]; [10]) was greater than 100 µM. For the same molecule, the GI50 (MOLT-4) was 0.0708 to 0.178 µM, the CC50 (MOLT-4; [11]) was greater than 100 µM and the TGI (MOLT-4; read-out: TGI) was 0.778 to 100 µM. It also gave a growth at 0.01 µM (SF-295) of 90 to 96%, a growth at 0.1 µM (IGROV-1) of 11 to 43% and a GI50 (RXF 393) of 0.205 to 0.479 µM. For the same molecule, the CC50 (RXF 393) was greater than 100 µM, the TGI (RXF 393) was 0.653 to 2.29 µM and the growth at 0.01 µM (T47D) was 64 to 81%. It also gave a growth at 100 µM (U-251) of 4%, a growth at 0.01 µM (SK-MEL-2 [7]) of 96 to 106% and a growth at 0.1 µM (EKVX) of 60 to 74%. For the same molecule, the growth at 0.01 µM (HCT-15 [8]) was 80 to 84% and the growth at 10 µM (HCT-15 [9]) was 3%.
`C#C[C@@]1(O)[C@@H](CO)O[C@@H](n2cc(I)c3c(N)ncnc32)[C@@H]1O` showed a GI50 (NCI/ADR-RES) of 0.0637 to 0.0839 µM, a TGI (NCI/ADR-RES; read-out: TGI) of 4.19 to 14.9 µM and a CC50 (NCI/ADR-RES) greater than 100 µM. For the same molecule, the growth at 10 µM (OVCAR-4 [1]) was 9 to 13%, the growth at 1 µM (K562) was 17 to 22% and the GI50 (SK-MEL-2 [2]) was 0.177 to 0.321 µM. The CC50 (SK-MEL-2 [2]) was 7.77 to 100 µM, the TGI (SK-MEL-2 [2]) was 1.59 to 1.95 µM and the growth at 0.01 µM (DU-145) was 91 to 94%. It also gave a growth at 1 µM (SNB-19) of 8 to 26%, a growth at 1 µM (SK-MEL-28) of 62 to 78% and a growth at 0.1 µM (HCT-116) of 22 to 34%. The growth at 100 µM (NCI-H226) was 4 to 16%, the growth at 100 µM (OVCAR-4 [3]) was 9 to 14% and the GI50 (SNB-75) was 0.373 to 0.559 µM. It also gave a CC50 (SNB-75) of 5.53 to 5.92 µM, a TGI (SNB-75) of 1.81 to 2.18 µM and a growth at 100 µM (SN12C) of 6%. The growth at 0.01 µM (MCF7) was 35 to 54%, the GI50 (MDA-MB-468) was 0.147 to 0.158 µM and the CC50 (MDA-MB-468; [11]) was 5.51 to 5.65 µM. The TGI (MDA-MB-468) was 0.421 to 0.746 µM, the growth at 1 µM (OVCAR-4 [4]) was 38 to 53% and the growth at 0.01 µM (KM12) was 94 to 97%. For the same molecule, the growth at 1 µM (NCI-H23 [5]) was 28 to 33%, the growth at 0.1 µM (HOP-92) was 38 to 70% and the GI50 (NCI-H23 [6]) was 0.271 to 0.395 µM. For the same molecule, the CC50 (NCI-H23 [6]; [11]) was greater than 100 µM, the TGI (NCI-H23 [6]) was 4.31 to 9.72 µM and the GI50 (MOLT-4) was 0.0489 to 0.108 µM. The TGI (MOLT-4; read-out: TGI) was 0.831 µM, the CC50 (MOLT-4; [10]) was greater than 100 µM and the TGI (MOLT-4; read-out: pTGI (converted)) was 0.832 µM. It also gave a growth at 0.01 µM (SF-295) of 90%, a growth at 0.1 µM (IGROV-1) of 5 to 13% and a growth at 1 µM (A549) of 29 to 41%. For the same molecule, the GI50 (RXF 393) was 0.418 to 0.463 µM, the CC50 (RXF 393) was 7.84 to 100 µM and the TGI (RXF 393) was 2.01 to 2.54 µM. It also gave a growth at 1 µM (RPMI-8226) of 23 to 27%, a growth at 0.01 µM (T47D) of 13 to 44% and a growth at 0.01 µM (SK-MEL-2 [7]) of 84 to 101%. It also gave a growth at 0.1 µM (EKVX) of 69 to 75%, a growth at 0.01 µM (HCT-15 [8]) of 74 to 84% and a growth at 10 µM (HCT-15 [9]) of 2 to 3%.
